Legend:
Assay type in all cases: physicochemical
[1] = Andersen Cascade Impaction of salmeterol xinafoate HFA 134a formulation; settings: for % FPM (FPM as percentage of total dose emitted ex-valve) / FPM (fine particle mass, sum of stages 3-5) / Total Dose Emitted (Ex-Actuator) / Total Dose Emitted (Ex-Valve): BoU, mean of 3 cans/inhalers
Procedure: (§1) Salmeterol xinafoate formulations in HFA 134a (1,1,1,2-tetrafluoroethane), of strength 25 μg per actuation, and 10% w/w (relative to drug) of the surfactant compound of Example 1 (Bis(4,4,5,5,5-pentafluopentanoyl)phosphatidylcholine) were prepared using salmeterol xinafoate (5.8 mg), HFA 134a (12 g) and the relevant compound (0.58 mg). The control was prepared without the addition of a surfactant.
The formulation, the preparation of which is described above, was profiled using an Andersen Cascade Impactor. Ten actuations at “beginning of use” (BoU) were collected in the impactor from an inhaler after 4 priming actuations were fired to waste. The drug delivered was then quantified by HPLC analysis. Testing was performed intially (following sample preparation) and then after inhalers had been stored at 40° C./75% RH for 8 weeks and for 3 months. The results, at each timepoint, in Table 2 are shown as the mean analysis of 3 cans/inhalers.
The profile obtained was used to determine total dose emitted dose (ex-valve and ex-actuator) and the fine particle mass (FPM, defined as the sum of stages 3-5). The percentage fine particle mass expresses the FPM as a percentage of the total dose emitted (ex-valve). The FPM is used as a measure of the proportion of the drug likely to reach the therapeutic target in the lungs.

[2] = Particle size of salmeterol xinafoate HFA 134a suspension by image analysis (Galai CIS-100)
Procedure: as §1
In this measurement, particle size is represented as the equivalent diameter of a circle of equal area to the object. The mean is the average of 4 determinations. The particle size measurement was obtained by transferring the suspensions to a presurised cell, and video-imaging the sample under shear via a microscope objective.
The equivalent diameter is defined as the diameter of a circle of equal area to the object. [formula]
The mean equivalent diameter can be weighted by number, length or volume. e.g. For three particles with equivalent diameters of x, y and z: [formula]

[3] = Content uniformity by dose through use testing; settings: for BuO dose: actuations 1+2, mean of 10 inhalers; for EuO dose: actuations 119+120, mean of 10 inhalers
Procedure: as §1
The content uniformity of the formulation, the preparation of which is described above, was assessed by dose through use testing. Testing was performed on 10 cans/inhalers at “beginning of use” (BoU) and “end of use” (EoU). After each inhaler had been primed (4 shots fired to waste), actuations 1 and 2 (BoU) were collected. The next 116 actuations of each inhaler were then fired to waste using an automated method and actuations 119 and 120 (EoU) collected.
Assesment of content uniformity was performed intially (following sample preparation) and then on a further 10 inhalers for each timepoint, 8 weeks and 3 months, which were stored at 40° C./75% RH. Mean results from the two BoU actuations (1+2 for 10 inhalers) and the two EoU actuations (119+120 for same 10 inhalers) at each timepoint together with the percentage relative standard deviation (% RSD) for the 10 cans are shown in Table 3.

[4] = in the presence of the surfactant

C[N+](C)(C)CCOP(=O)([O-])OC[C@@H](COC(=O)CCC(F)(F)C(F)(F)F)OC(=O)CCC(F)(F)C(F)(F)F [Example 1, Bis(4,4,5,5,5-pentafluopentanoyl)phosphatidylcholine]
% FPM (FPM as percentage of total dose emitted ex-valve) ([1]; 3 month at 40° C./75% RH): 42.5% | FPM (fine particle mass, sum of stages 3-5) ([1]; 3 month at 40° C./75% RH): 10.4 µg | Total Dose Emitted (Ex-Actuator) ([1]; 3 month at 40° C./75% RH): 20.1 µg | Total Dose Emitted (Ex-Valve) ([1]; 3 month at 40° C./75% RH): 24.4 µg | % FPM (FPM as percentage of total dose emitted ex-valve) ([1]; 8 week at 40° C./75% RH): 44.2% | FPM (fine particle mass, sum of stages 3-5) ([1]; 8 week at 40° C./75% RH): 10.4 µg | Total Dose Emitted (Ex-Actuator) ([1]; 8 week at 40° C./75% RH): 19.5 µg | Total Dose Emitted (Ex-Valve) ([1]; 8 week at 40° C./75% RH): 23.5 µg | % FPM (FPM as percentage of total dose emitted ex-valve) ([1]; Initial): 47.7% | FPM (fine particle mass, sum of stages 3-5) ([1]; Initial): 11.1 µg | Total Dose Emitted (Ex-Actuator) ([1]; Initial): 20.0 µg | Total Dose Emitted (Ex-Valve) ([1]; Initial, 10% w/w surfactant): 23.3 µg | change in absolute FPM versus control [1, 4]: increase | change in absolute doses emitted versus control [1, 4]: increase | change in percentage FPM versus control [1, 4]: significant increase | change in average particle size (mean length weighted diameter) versus control ([2]; compound incorporated into the formulation): marked reduction | Mean Length weighted diameter ([2]; salmeterol xinafoate 25 μg per actuation in HFA 134a, 10% w/w surfactant relative to drug, average of 4 determinations): 13.3 μm | suspension stabilising properties (discouraging flocculation of drug particles) ([2]; salmeterol xinafoate in HFA 134a, 10% w/w surfactant): suspension stabilising properties | BuO dose ([3]; 3 Month at 40° C./75% RH): 19.7 µg | EuO dose ([3]; 3 Month at 40° C./75% RH): 22.6 µg | BuO dose ([3]; 8 Week at 40° C./75% RH): 20.3 µg | EuO dose ([3]; 8 Week at 40° C./75% RH): 24.2 µg | change in percentage RSD at EoU versus control (can to can reproducibility) ([3]; 10 inhalers tested): reduction | BuO dose ([3]; Initial): 19.6 µg | EuO dose ([3]; Initial): 23.3 µg

Reference: patent publication US20040219106A1, “Compounds for use as surfactants” (priority 2001, published 2004)
